A word on the IC50: it is the concentration at which inhibition is half-maximal. One may read the inhibition as how much of the control response was suppressed.

Assay [1] deals with Bifunctional protein GlmU (Escherichia coli (strain K12), UniProt P0ACC7). The assay is described as follows: Inhibition of Escherichia coli GlmU acetyltransferase activity assessed as coenzyme A production using acetyl CoA substrate.
Assay [2] has as its target Bifunctional protein GlmU (Escherichia coli (strain K12)) (UniProt P0ACC7). The experiment in a line: Inhibition of Escherichia coli GlmU acetyltransferase activity assessed as coenzyme A production using acetyl CoA substrate at 100 uM.

Chain of Bifunctional protein GlmU (Escherichia coli (strain K12)) (P0ACC7 whole entry, looked up): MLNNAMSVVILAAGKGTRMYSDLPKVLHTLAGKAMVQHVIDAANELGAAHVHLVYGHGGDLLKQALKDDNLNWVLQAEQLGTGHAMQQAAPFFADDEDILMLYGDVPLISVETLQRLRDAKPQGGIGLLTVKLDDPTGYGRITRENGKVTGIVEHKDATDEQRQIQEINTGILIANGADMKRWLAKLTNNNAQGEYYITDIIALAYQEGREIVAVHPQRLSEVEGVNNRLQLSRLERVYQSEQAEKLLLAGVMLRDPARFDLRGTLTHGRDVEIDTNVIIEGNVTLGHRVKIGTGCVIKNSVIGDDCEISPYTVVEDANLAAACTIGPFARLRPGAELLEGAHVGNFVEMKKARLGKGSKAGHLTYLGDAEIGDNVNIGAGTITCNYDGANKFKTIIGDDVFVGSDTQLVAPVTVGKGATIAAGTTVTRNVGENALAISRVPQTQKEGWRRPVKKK
Chain of Bifunctional protein GlmU (P0ACC7 whole entry): as the sequence (P0ACC7 whole entry, looked up) above

As to `COc1cc(OC)c(S(=O)(=O)N2c3ccccc3CC[C@@H]2C)cc1NC(=O)Cc1ccnc(C#N)c1`, the IC50 in assay [1] came out at 680 nM. On the same count and under the same terms, in the case of `COc1cc(OC)c(S(=O)(=O)N(c2ccccc2)c2ccc3ccccc3c2)cc1NC(=O)CCC(=O)O` it was 40 nM. Same read-out and setting: as for `COc1cc(OC)c(S(=O)(=O)N2c3ccccc3CC[C@H]2C)cc1NC(=O)CSCC(=O)O`, the figure is 100 nM. Same read-out and setting: as for `CCN(c1ccccc1C)S(=O)(=O)c1cc(NC(C)=O)c(OC)cc1OC`, the figure is 15000 nM; as for `COc1cc(OC)c(S(=O)(=O)N(c2ccccc2)C(C)C)cc1NC(C)=O`, 2000 nM. On to `COc1cc(OC)c(S(=O)(=O)NCc2ccccc2CC(=O)O)cc1NC(C)=O`, for which the IC50 in assay [1] turned out to be 15000 nM. As for `COc1cc(OC)c(S(=O)(=O)N2c3ccccc3CC[C@H]2C)cc1NC(C)=O`, the concentration for half-maximal inhibition (IC50) in assay [1] was determined as 1500 nM. As for `COc1cc(OC)c(S(=O)(=O)N(c2ccc(C)cc2)c2ccc(C)cc2)cc1NC(=O)CCC(=O)O`, the IC50 in assay [1] turned out to be 40 nM. The same measure, in the same setting: as for `COc1cc(OC)c(S(=O)(=O)N2c3ccccc3CC[C@H]2C)cc1NC(=O)NCC(=O)O`, the figure is 500 nM; as for `COc1cc(OC)c(S(=O)(=O)NCc2ccccc2N2CCC(C(=O)O)CC2)cc1NC(=O)CCC(=O)O`, 500 nM; as for `COc1cc(OC)c(S(=O)(=O)NCc2ccccc2N2CCC(COC(=O)CCC(=O)O)CC2)cc1NC(=O)CCC(=O)O`, 250 nM. Still for that read-out and setting: as for `COc1cc(OC)c(S(=O)(=O)NCc2ccccc2-c2ccc(C(=O)O)cc2)cc1NC(=O)CCC(=O)O`, the figure is 900 nM; as for `COc1cc(OC)c(S(=O)(=O)N2c3ccccc3Oc3ccccc32)cc1NC(=O)Cc1ccnc(F)c1`, 90 nM.

In the case of `COc1cc(OC)c(S(=O)(=O)N2c3ccccc3CC[C@@H]2C)cc1NC(=O)c1ccccc1`, in assay [1], the IC50 was 200000 nM. Same read-out and setting: as for `COc1cc(OC)c(S(=O)(=O)N2c3ccccc3CC[C@@H]2C)cc1NC(=O)CCc1nn[nH]n1`, the figure is 430 nM. On the same count and under the same terms, in the case of `COc1cc(OC)c(S(=O)(=O)N2c3ccccc3Sc3ccccc32)cc1NC(=O)CCC(=O)O` it was 90 nM; in that of `COc1cc(OC)c(S(=O)(=O)N2c3ccccc3CC[C@@H]2C)cc1NC(=O)/C=C/C(=O)O`, 500 nM. Regarding `COc1cc(OC)c(S(=O)(=O)NCc2ccccc2N2CCC(CC(=O)O)CC2)cc1NC(=O)CCC(=O)O`, in assay [1], the IC50 worked out at 400 nM. On the same count and under the same terms, as for `COc1cc(OC)c(S(=O)(=O)N(c2ccccc2)c2ccc(N)cc2)cc1NC(=O)CCC(=O)O`, the figure is 20 nM; as for `COc1cc(OC)c(S(=O)(=O)Nc2cccc(F)c2)cc1NC(C)=O`, 15000 nM; as for `COc1cc(O)c(S(=O)(=O)N2c3ccccc3CC[C@H]2C)cc1NC(=O)[C@H]1[C@H](C)[C@H]1C(=O)O`, 480 nM. Still for that read-out and setting: in the case of `COc1cc(OC)c(S(=O)(=O)N2CCC[C@H]2C)cc1NC(C)=O` it was 200000 nM; in that of `COc1cc(OC)c(S(=O)(=O)Nc2ccc(F)cc2)cc1NC(C)=O`, 25000 nM. For `COc1cc(OC)c(S(=O)(=O)N2c3ccccc3Oc3ccccc32)cc1NC(=O)[C@H]1[C@@H](C)[C@H]1C(=O)O`, the IC50 in assay [1] was 30 nM. The same measure, in the same setting: as for `COc1cc(OC)c(S(=O)(=O)Nc2ccccc2F)cc1NC(C)=O`, the figure is 5000 nM; as for `COc1cc(OC)c(S(=O)(=O)N(C)c2ccccc2)cc1NC(C)=O`, 3000 nM; as for `COc1cc(OC)c(S(=O)(=O)NCc2ccccc2N2CCC(CO)CC2)cc1NC(=O)CCC(=O)O`, 3000 nM.

On to `COc1cc(OC)c(S(=O)(=O)N2c3ccccc3CC[C@@H]2C)cc1NC(=O)COCC(=O)O`, for which the IC50 in assay [1] is 200 nM. The same measure, in the same setting: in the case of `COc1cc(OC)c(S(=O)(=O)NCc2ccccc2N2CCCCC2)cc1NC(=O)CCC(=O)O` it was 3000 nM. The same measure, in the same setting: as for `COc1cc(OC)c(S(=O)(=O)N2c3ccccc3CC[C@H]2C)cc1NS(C)(=O)=O`, the figure is 100000 nM; as for `COc1cc(OC)c(S(=O)(=O)NCc2ccccc2N2CCC(CO)CC2)cc1NC(C)=O`, 40000 nM; as for `COc1cc(OC)c(S(=O)(=O)N2c3ccccc3CC[C@@H]2C)cc1NC(=O)COc1ccc(C(C)=O)cc1`, 200000 nM. As for `O=C(CSC1=NS(=O)(=O)c2ccccc2N1)OCc1ccccc1`, the inhibition in assay [2] was found to be 18.4%. Regarding `COc1cc(OC)c(S(=O)(=O)Nc2ccccc2)cc1NC(C)=O`, in assay [1], the IC50 worked out at 20000 nM.

As for `CCOC(=O)c1cc(S(=O)(=O)N2CCCC2C(=O)NC(C)(C)CC)cn1C` (stereo not drawn), the inhibition in assay [2] is 30.8%. On the same count and under the same terms, in the case of `Cc1ccc(C)c(NS(=O)(=O)c2ccc(-c3nnc(C(C)C)o3)o2)c1` it was 34.4%.

With `COc1cc(OC)c(S(=O)(=O)N2c3ccccc3Oc3ccccc32)cc1NC(=O)/C=C/C(=O)O`, the IC50 in assay [1] is 10 nM.

Consider `O=S(=O)(NCc1cccnc1)c1ccc(-c2ccno2)o1`, for which the inhibition in assay [2] was found to be 44.7%. As for `COc1cc(OC)c(S(=O)(=O)N2c3ccccc3Oc3ccccc32)cc1NC(=O)CCC(=O)O`, the IC50 in assay [1] was 10 nM. Same read-out and setting: as for `COc1cc(OC)c(S(=O)(=O)NCc2ccc3c(c2)OCO3)cc1NC(C)=O`, the figure is 200000 nM. On to `O=S(=O)(c1ccccc1)c1nc(-c2ccco2)oc1NCCCn1ccnc1`, for which the inhibition in assay [2] worked out at 20.7%. As to `COc1cc(OC)c(S(=O)(=O)Nc2cccc(C)c2)cc1NC(C)=O`, in assay [1], the IC50 is 17000 nM.

Turning to `CCOC(=O)c1cc(S(=O)(=O)N2CCCC2C(=O)NC(C)C)cn1C` (stereo not drawn), the inhibition in assay [2] amounted to 10.3%.

In the case of `O=S(=O)(NCc1ccccn1)c1ccc(-c2ccno2)o1`, the inhibition in assay [2] stood at 30.6%. As for `O=C(CN1c2cccc3cccc(c23)S1(=O)=O)Nc1ccc(F)c(F)c1`, the inhibition in assay [2] is 28.4%. With `COc1ccccc1CNS(=O)(=O)c1cc(NC(C)=O)c(OC)cc1OC`, the 50% inhibitory concentration (IC50) in assay [1] is 10000 nM. On the same count and under the same terms, as for `COc1cc(OC)c(S(=O)(=O)N2CCCC[C@@H]2C)cc1NC(C)=O`, the figure is 130000 nM; as for `COc1cc(OC)c(S(=O)(=O)NCc2ccccc2Br)cc1NC(C)=O`, 4000 nM. Take `CCOC(=O)c1c(S(=O)(=O)NCC(=O)Nc2ccccc2)c(C)n(C)c1C`: in assay [2], the inhibition is 15.2%. Turning to `COc1cc(OC)c(S(=O)(=O)N2Cc3ccccc3Oc3ccccc32)cc1NC(=O)CCC(=O)O`, in assay [1], the IC50 came to 30 nM. In the case of `Cc1nc2c(c(SCC(=O)c3ccc(O)cc3O)n1)CCC2`, in assay [2], the inhibition is 25.9%.

With `COc1cc(OC)c(S(=O)(=O)N2c3ccccc3CC[C@@H]2C)cc1NC(=O)CCC(=O)O`, the IC50 in assay [1] was 90 nM. In the case of `CC(Sc1nnc(O)nc1O)C(=O)OCc1ccccc1` (stereo not drawn), the inhibition in assay [2] stood at 28.6%. Turning to `COc1cc(OC)c(S(=O)(=O)N2CCCCC2)cc1NC(C)=O`, in assay [1], the concentration for half-maximal inhibition (IC50) was found to be 80000 nM. Still for that read-out and setting: as for `COc1cc(OC)c(S(=O)(=O)N2c3ccccc3Oc3ccccc32)cc1NC(=O)Cc1ccncc1`, the figure is 60 nM. As for `CC(=O)Cc1nsc(NC(=O)C2(C)Cc3ccccc3C(=O)O2)n1` (stereo not drawn), the inhibition in assay [2] came to 24.6%. On the same count and under the same terms, in the case of `COc1cc(NS(=O)(=O)c2c[nH]c3ncccc23)cc(OC)c1` it was 19.3%. Consider `COc1cc(OC)c(S(=O)(=O)N2c3ccccc3CC[C@H]2C)cc1NC(=S)NCC(=O)O`, for which the IC50 in assay [1] amounted to 500 nM. The same measure, in the same setting: as for `COc1cc(OC)c(S(=O)(=O)N(C)C)cc1NC(C)=O`, the figure is 200000 nM. In the case of `O=S(=O)(Nc1cc(F)cc(F)c1)c1c[nH]c2ncccc12`, the inhibition in assay [2] was found to be 14.8%. For `COc1cc(O)c(S(=O)(=O)N2c3ccccc3CC[C@H]2C)cc1NC(=O)CCC(=O)O`, the IC50 in assay [1] is 50 nM. Still for that read-out and setting: as for `COc1cc(OC)c(S(=O)(=O)NCc2ccccc2N2CCCCC2)cc1NC(C)=O`, the figure is 200000 nM; as for `COc1cc(O)c(S(=O)(=O)N2c3ccccc3Oc3ccccc32)cc1NC(=O)[C@H]1[C@H](C)[C@@H]1C(=O)O`, 60 nM.

In the case of `COc1cc(OC)c(S(=O)(=O)N2c3ccccc3CC[C@H]2C)cc1NC(=O)COC(C)=O`, the IC50 in assay [1] is 2000 nM. `Cc1cc(SCC(=O)c2ccc(O)cc2O)ncn1`: the inhibition in assay [2] is 20.9%. Take `COc1cc(OC)c(S(=O)(=O)N(c2ccccc2)c2ccccc2)cc1NC(=O)CCC(=O)O`: in assay [1], the IC50 amounted to 40 nM. Take `CCOC(=O)c1cc(S(=O)(=O)N(C)CC(=O)Nc2ccc(C)cn2)cn1C`: the inhibition in assay [2] is 14.3%. On the same count and under the same terms, in the case of `COc1cc(Nc2c(-c3ccccc3)c(=O)c2=O)cc(OC)c1` it was 40%. `COc1cc(OC)c(S(=O)(=O)N2c3ccccc3CC[C@H]2C)cc1NC(=O)CSc1ccncc1`: the IC50 in assay [1] amounted to 1000 nM. Same read-out and setting: as for `COc1cc(OC)c(S(=O)(=O)Nc2ccc(C)cc2)cc1NC(C)=O`, the figure is 21000 nM; as for `COc1cc(OC)c(S(=O)(=O)N2c3ccccc3CC[C@@H]2C)cc1NC(=O)[C@@H]1[C@@H](C)[C@H]1C(=O)O`, 400 nM; as for `COc1cc(OC)c(S(=O)(=O)N2c3ccccc3CC[C@@H]2C)cc1NC(=O)Cc1ccnc(F)c1`, 800 nM.

As for `COC(=O)c1cc(S(=O)(=O)Nc2cccc(Cl)c2C)c[nH]1`, the inhibition in assay [2] came out at 3.74%.

The values are drawn from ChEMBL document CHEMBL3414535, “Identification and optimization of Escherichia coli GlmU inhibitors: an in silico approach with validation thereof” (Eur J Med Chem, 2015).
